A short description of one data set: in vitro. The note with it: human.
The conditions of data set [1]: Rat, cited from earlier work; for Plasma concentration (Cmax): ref Table S3 supplementary refs 3, 10, 12, 21; for Cmax: read-out: Plasma concentration (Cmax).
In data set [2] the test system is Toxoplasma gondii tachyzoites of the RH strain. In words: microbe, parasite or virus in culture. The note with it: 168 h; for inhibition at 1 µM: read-out: Inhibition of tachyzoite proliferation.
Data set [3] has the same test system. Description: microbe, parasite or virus in culture. The note with it: Toxoplasma gondii; for activity at 0.125 µM: 125 nM; for activity at […]: 250 nM. Type of data set: cell-based.
Data set [4] has the same test system. The settings on record: for IC50: 7 days of treatment.
For data set [5] the following is noted: cited from earlier work.
In data set [6] the test system is T. gondii tachyzoites. In words: Transmission electron microscopy of treated tachyzoites. Type of data set: cell-based, Toxoplasma gondii. The settings on record: 48 h. The protocol: NHDF cultures infected with T. gondii were treated with compounds and fixed with 2.5% glutaraldehyde (EM Grade—Ted Pella Inc., Redding, CA, USA) in 0.1 M sodium cacodylate buffer pH 7.4 (Ted Pella Inc.). Cells were post-fixed with 1% osmium tetroxide, 1.25% potassium ferrocyanide, and 5 mM CaCl2, in 0.1 M sodium cacodylate buffer (pH 7.4). The sample fixation and processing for microscopy were performed as previously described. Samples were dehydrated in alcohol solutions of increasing concentrations (35–100%) and embedded in epoxy resin (Polybed 812, Polysciences). Ultrathin sections were collected in copper grids 300 mesh (Ted Pella Inc.), stained with uranyl acetate and lead citrate, and then observed in a Fei TecNai G2 120 kV Spirit Electron Microscope (FEI Company, Eindhoven, The Netherlands).

For data set [7] the following is noted: cited from earlier work. The source holds these as a separate data set.
Data set [8] deals with T. gondii tachyzoites. In words: Immunofluorescence microscopy of treated tachyzoites (aberrant cell division, rhoptry morphology). The settings on record: 1 µM, 24 h.
Procedure: Rabbit anti-IMC1 (1:1000) and anti-ARO (1:1000) (kindly provided by Dr. Dominique Soldati, Universite de Geneve, Switzerland) were used to label the mother cell and daughter cell pellicles throughout the endodyogeny process and rhoptries, respectively. Mouse anti-SAG1 (1:200; kindly donated by Dr. Tiago Mineo, Universidade Federal de Uberlândia) was used to label the parasite plasma membrane. DAPI (2 µg/mL; Sigma-Aldrich, St. Louis, MO, USA) was used to label the DNA. […] After labeling with antibodies, the coverslips were mounted onto slides using Prolong gold (Life Technologies), and samples were examined on a Zeiss Axio Observer Z1 microscope (Baden-Württemberg, Germany) or Olympus BX60 microscope (Shinjuku City, Tokyo, Japan).
Data set [9] is described as follows: Cytotoxicity assay in NHDF cells (MTS). The settings on record: human.
Data set [10] deals with T. gondii tachyzoites. The settings on record: ref [23], read-out: IC50 for T. gondii tachyzoites, cited from earlier work.
Setting [11] is: ref Table S3 supplementary refs 3, 10, 12, 28, 32.
The mark [12] stands for this setting: NHDF, read-out: IC50 (μM) in Tachyzoites, RH strain in NHDF cells, plaque assay, 7 days of treatment.
Where [13] appears, read: 24 h of treatment, read-out: Proliferation index (%).
[14] abbreviates: read-out: IC50 against T. gondii proliferation, RH strain, 7 days of treatment.
[15] abbreviates: Human, ref Table S3 supplementary refs 1, 4, 8, 11, 13, 15, 17, 18, 19, 23, 31.
Where [16] appears, read: read-out: Plasma concentration (Cmax), Human, ref Table S3 supplementary refs 1, 4, 8, 11, 13, 15, 17, 18, 19, 23.
Setting [17] is: read-out: IC50 (μM) in Tachyzoites, RH strain in NHDF cells, plaque assay.
Where [18] appears, read: read-out: Plasma concentration (Cmax), Human, ref Table S3 supplementary refs 20, 22, 25, 31.

We go through 19 compounds from publication PMC11676817, “Antiproliferative and Morphological Analysis Triggered by Drugs Contained in the Medicines for Malaria Venture COVID-Box Against Toxoplasma gondii Tachyzoites” (Microorganisms, 2024).

Where two headings read alike, the source gives them in different places.

Turning to `COc1cc2c3cc1Oc1c(OC)c(OC)cc4c1[C@@H](Cc1ccc(O)c(c1)Oc1ccc(cc1)C[C@@H]3N(C)CC2)N(C)CC4` [Berbamine], in the data set “in vitro”, the CC50 at 7 days turned out to be 4610 ± 7520 nM and the selectivity ratio at 7 days was found to be 15. For the same compound, the “Plasma concentration (Cmax)” value in data set [1] was 32.6 ng/mL. Besides, the Cmax in [1] (setting [11]) was 53.6 nM. Also, the IC50 in data set [2] (setting [12]) was 0.31 ± 0.03 µM.
Take `O=c1[nH]c2ccccc2n1C1CCN(CCCC(c2ccc(F)cc2)c2ccc(F)cc2)CC1` [Pimozide]: in data set [2] (setting [12]), the IC50 is 0.64 ± 0.15 µM.
With `CCc1nc(N)nc(N)c1-c1ccc(Cl)cc1` [Pyrimethamine], in data set [3] (setting [13]), the activity at 0.125 µM is 87.3% and the activity at […] worked out at 56.6%. Further, in data set [3] (500 nM, 24 h of treatment, read-out: Proliferation index (%)), the activity at 0.5 µM turned out to be 39.2%. In [3] (1000 nM, 24 h of treatment, read-out: Proliferation index (%)), the activity at 1 µM worked out at 22%.
On to `CCCCc1oc2ccccc2c1C(=O)c1cc(I)c(OCCN(CC)CC)c(I)c1` [amiodarone, Amiodarone], for which the “Cytotoxicity for the host cells during the initial screening” value in data set [4] is recorded as “signs of cytotoxicity for the host cells”.
As for `CC(C)(C)Cn1c(N)nc2ccc(-c3[nH]c(C(C)(C)C)nc3-c3ccc(F)cc3)nc21` [LY2228820], the IC50 in data set [2] (setting [14]) is less than 0.1 µM; in data set [2] (setting [12]) it was 0.04 µM.
`CC[C@H]1CN2CCc3cc(OC)c(OC)cc3[C@@H]2C[C@@H]1C[C@H]1NCCc2cc(OC)c(OC)cc21` [Emetine] showed a CC50 at 7 days in “in vitro” of 1020 ± 190 nM. In addition, the “Plasma concentration (Cmax)” value in [5] (setting [15]) is listed as 9.6 ng/mL. Besides, in data set [5] (setting [16]), the Cmax is 20 nM. In addition, the IC50 was less than 0.1 µM in data set [2] (setting [14]) and 0.05 ± 0.01 µM in data set [2] (setting [12]).
For the compound Ivermectin, in the data set on T. gondii tachyzoites [6] (1 µM), the “Effect on T. gondii ultrastructure (TEM)” value is given as “induced the formation of myelin-like structures”. Further, the “Plasma concentration (Cmax)” value in data set [5] (setting [15]) is on record as 260.5 ng/mL; in data set [7] (Mouse, ref Table S3 supplementary ref 16), 642.3 ng/mL. In addition, the Cmax in [5] (setting [16]) is 298 nM; in [7] (read-out: Plasma concentration (Cmax), Mouse/Mice, ref Table S3 supplementary refs 16, 27), 734 nM. Besides, the “Effect on tachyzoite cell division (fluorescence microscopy)” value in the data set on T. gondii tachyzoites [8] is given as “significant cell division arrestment”.
Turning to `C[C@@H]1O[C@@H](O[C@@H]2C=C3CC[C@@H]4[C@H](CC[C@]5(C)[C@@H](c6ccc(=O)oc6)CC[C@]45O)[C@@]3(C)CC2)[C@H](O)[C@H](O)[C@H]1O` [proscillaridin, Proscillaridin], the “Cytotoxicity for the host cells during the initial screening” value in [4] (1 µM, NHDF host cells) is given as “signs of cytotoxicity for the host cells”. For the same compound, in data set [2], the inhibition at 1 µM is no less than 70%.
In the case of `Cc1ccc(C(=O)Nc2ccc(CN3CCN(C)CC3)c(C(F)(F)F)c2)cc1C#Cc1cnc2cccnn12` [Ponatinib], the “Plasma concentration (Cmax)” value in data set [5] (setting [15]) is on record as 123 ng/mL. In data set [5] (setting [16]), the Cmax was 231 nM. Further, the IC50 in [2] (setting [12]) was determined as 0.33 ± 0.03 µM.
As for `C[C@@H]1C[C@@H]([C@H](O)CC2CC(=O)NC(=O)C2)C(=O)[C@@H](C)C1` [Cycloheximide], the activity at 0.0312 µM in [3] (31.2 nM, 24 h of treatment, read-out: Proliferation index (%)) is 47.9%. Besides, the inhibition at 0.0625 µM in data set [3] (62.5 nM, 24 h, read-out: Inhibition of parasite proliferation) is 75 to 80%. In addition, in data set [3] (62.5 nM, 24 h of treatment, read-out: Proliferation index (%)), the activity at 0.0625 µM was 30.5%. For the same compound, the activity at 0.125 µM in data set [3] (setting [13]) stood at 33%. The “Effect on T. gondii ultrastructure (TEM)” value was “increased endoplasmic reticulum area” in the data set with T. gondii tachyzoites [6] (62.5 nM) and “vacuoles containing parasites were completely lysed” in the data set with T. gondii tachyzoites [6] (125 nM). Further, the IC50 in [4] (setting [17]) was 0.02 µM; in data set [4] (read-out: IC50 against T. gondii proliferation, RH strain), less than 0.03 µM; in data set [2] (setting [14]) it was no more than 0.03 µM. In the data set “in vitro”, the CC50 at 7 days turned out to be 6080 ± 4630 nM. For the same compound, the “Plasma concentration (Cmax)” value in [1] is 43.1 ng/mL. For the same compound, the Cmax in [1] (setting [11]) is 153 nM.
As to `O=C(Nc1ccc([N+](=O)[O-])cc1Cl)c1cc(Cl)ccc1O` [Niclosamide], in the data set “in vitro”, the selectivity ratio at 7 days was 8. Moreover, the “Plasma concentration (Cmax)” value in data set [5] (Human, ref Table S3 supplementary ref 22) is 1280 ng/mL. Further, the Cmax in data set [5] (setting [18]) is 3900 nM; in [1] (ref Table S3 supplementary refs 21, 29), 1080 nM. For the same compound, in data set [2] (setting [12]), the IC50 stood at 0.36 ± 0.02 µM. In [9], this compound came in with a CC50 at 7 days of 3050 ± 80 nM.
`C[C@H]1O[C@@H](O[C@H]2[C@@H](O)C[C@H](O[C@H]3[C@@H](O)C[C@H](O[C@H]4CC[C@@]5(C)[C@H](CC[C@@H]6[C@@H]5CC[C@]5(C)[C@@H](C7=CC(=O)OC7)CC[C@]65O)C4)O[C@@H]3C)O[C@@H]2C)C[C@H](O)[C@@H]1O` [digitoxin, Digitoxin]: the inhibition at 1 µM in [2] is no less than 70%.
Take `C[C@H]1c2cccc(O)c2C(=O)C2=C(O)[C@]3(O)C(=O)C(C(N)=O)=C(O)[C@@H](N(C)C)[C@@H]3[C@@H](O)[C@@H]21` [doxycycline, Doxycycline]: in data set [2], the inhibition at 1 µM was no less than 70%.
Still for that read-out and setting: next, `COc1cccc2c1C(=O)c1c(O)c3c(c(O)c1C2=O)C[C@@](O)(C(=O)CO)C[C@@H]3O[C@H]1C[C@H](N)[C@H](O)[C@H](C)O1` [doxorubicin, Doxorubicin]: no less than 70%.
`C[C@H]1O[C@@H](O[C@H]2[C@@H](O)C[C@H](O[C@H]3[C@@H](O)C[C@H](O[C@H]4CC[C@@]5(C)[C@H](CC[C@@H]6[C@@H]5C[C@@H](O)[C@]5(C)[C@@H](C7=CC(=O)OC7)CC[C@]65O)C4)O[C@@H]3C)O[C@@H]2C)C[C@H](O)[C@@H]1O` [Digoxin] registered a CC50 at 7 days in the data set “in vitro” of 340 ± 320 nM. The IC50 in data set [2] (setting [14]) is no more than 0.03 µM; in data set [2] (setting [12]) it was 0.03 ± 0.01 µM.
Regarding `COC(=O)C1=C(C)NC(C)=C(C(=O)OCCN2CCN(C(c3ccccc3)c3ccccc3)CC2)C1c1cccc([N+](=O)[O-])c1` (stereo not drawn) [Manidipine], in [5] (human, in vivo), the Cmax is 9 nM and the “Plasma concentration (Cmax)” value is on record as 5.53 ng/mL. In addition, in [2] (setting [12]), the IC50 is 0.74 ± 0.09 µM.
With `COc1c(C)c2c(c(O)c1C/C=C(\C)CCC(=O)O)C(=O)OC2` [Mycophenolic acid], the activity at 0.125 µM in data set [3] (setting [13]) was found to be 61.3%. In addition, the inhibition at […] in data set [3] (250 nM (0.25 µM), 24 h, read-out: Inhibition of parasite proliferation) fell in the range of 55 to 60%. In addition, in data set [3] (setting [13]), the activity at […] stood at 42%. For the same compound, in the data set with T. gondii tachyzoites [6] (250 nM), the “Effect on T. gondii ultrastructure (TEM)” value is given as “affected the tachyzoites’ division process”. Besides, the IC50 in the data set on T. gondii tachyzoites [10] (24 h of treatment) is 211000 nM; in data set [2] (setting [14]), less than 0.1 µM; in data set [2] (setting [12]), 0.07 ± 0.01 µM. Also, the selectivity ratio at 7 days in “in vitro” is 340. Moreover, in [5] (Human, ref Table S3 supplementary refs 20, 25), the “Plasma concentration (Cmax)” value is 24300 ng/mL. Also, the Cmax in data set [5] (setting [18]) is 75800 nM. This compound gave a CC50 at 7 days in [9] of 23800 ± 32000 nM.
As for `COc1cc(NC(=O)Nc2cccc(CNC(=O)O[C@H]3CCOC3)c2)ccc1-c1cnco1` [Merimepodib], in data set [3] (1.5 µM, 24 h, read-out: Inhibition of parasite proliferation), the inhibition at […] was in the range of 55 to 60%. Also, the inhibition at 2 µM in data set [3] (2.0 µM, 24 h, read-out: Inhibition of parasite proliferation) fell in the range of 55 to 60%. For the same compound, the IC50 in data set [4] (setting [17]) is 0.48 ± 0.08 µM; in the data set on T. gondii tachyzoites [10] (72 h of treatment), 780 nM; in [2] (setting [12]), less than 0.5 µM. For the same compound, the “Plasma concentration (Cmax)” value in [5] (setting [15]) is recorded as 1590 ng/mL. Besides, the Cmax in [5] (setting [16]) was 5510 nM.
With `CCC(C)n1ncn(-c2ccc(N3CCN(c4ccc(OCC5COC(Cn6cncn6)(c6ccc(Cl)cc6Cl)O5)cc4)CC3)cc2)c1=O` (stereo not drawn) [itraconazole, Itraconazole], the inhibition at 1 µM in data set [2] is no less than 70%.
